Test results published in patent publication US5494895A, “Scorpion peptide margatoxin with immunosuppressant activity” (Merck & Co., Inc., priority 1993, dated 1996).
Peptide text beside a SMILES is read from it.

Tests used:
[1] = target: T1, lymphocyte Kv 1.3 current (Homo sapiens, UniProt P22001); experiment: Whole cell patch clamp of human peripheral T-lymphocytes; assay type: cell-based
T1 construct: endogenous in cells; host or cells: purified human peripheral blood T lymphocytes
Procedure: Ionic currents were recorded from human peripheral T-lymphocytes using the whole cell patch clamp technique described in Cahalan, M. and Neher, E., Meth. Enzymol. 207, 3, 1992. Purified human T cells were obtained as described in Leonard et al., Proc. Natl. Acad. Sci. U.S.A., 89, 10094, 1992, and recordings were carried out in a bath solution consisting of ^125 mM NaCl, 2.5 mM KCl, 1.0 mM CaCl2, 2.0 mM MgCl2, 10 mM HEPES (potassium salt), 10 mM glucose, 5 mM Na-pyruvate, and 0.05% BSA. The pH was adjusted to 7.2, and experiments were performed at room temperature (19°-22° C.). The intracellular (pipette) solution contained 140 mM K-glutamate, 1 mM MgCl2, 10 mM HEPES (potassium salt), and 0.1 mM EGTA. The pH was adjusted to 7.2. Patch pipettes were fabricated from DAGAN (Minneapolis, Minn.) LG-16 glass and had resistances of 2 to 8M.OMEGA.. Currents were measured using a DAGAN model 3900 patch clamp. Delivery of command voltages, data acquisition, and post-acquisition analysis were aided by a microcomputer running the Pclamp program suite (AXON INSTRUMENTS, Foster City, Calif.).
Methods for oocyte isolation and micro-injection were previously described in Goldin, Meth. Cell Biol, 36, 487, 1991, and Swanson and Folander, Meth. Enzymol., 207, 310, 1992. Currents expressed in oocytes were measured using a DAGAN model CA-1 two-electrode voltage clamp. Delivery of command voltages, data acquisition and post-acquisition analysis were aided by a microcomputer running the Pclamp program suite. The oocyte bathing solution consisted of 96 mM NaCl, 2.5 mM KCl, 1 mM MgCl2, 1.8 mM CaCl2, 10 mM HEPES, and 0.05% BSA. The pH was 7.2. All recordings were obtained at room temperature (19°-22° C.). The intracellular microelectrodes were fabricated from DAGAN LE-16 glass in a two-stage pull to a final resistance of 0.6 to 2M.OMEGA. and filled with 3M KCl. For both lymphocyte and oocyte experiments, peptides were diluted into the extracellular solution from 20 μM aqueous stock containing 100 mM NaCl. The presence of 0.05% BSA in the bath solution inhibited non-specific loss of dilute peptide toxins in the perfusion tubing.
Both native and recombinant MgTX were tested for their ability to block voltage gated K^+ channels. […] There was insufficient native toxin to carry out selectivity studies, so those were conducted using the recombinant material exclusively. […] The apparent IC50 for inhibition of the lymphocyte Kv 1.3 current is between 20 to 100 pM. […] As reported previously, MgTX has no effect on three different ChTX-sensitive, Ca^2+ -activated K^+ channels of lymphocytes, even at 100 nM (Leonard et al., Proc. Natl. Acad. Sci. U.S.A. 89, 10094, 1992).

[2] = tested on: Kv 3 (rat Kv 1.3; human Kv 1.3); experiment: Two-electrode voltage clamp of Xenopus oocytes expressing Kv 3 (Kv 1.3); assay type: cell-based, rat and human; conditions: read-out: IC50 on cloned channel Kv 3
Procedure: Ionic currents were also recorded from Xenopus oocytes that had been injected with RNA transcribed in vitro from one or another of the following K^+ channel cDNA clones. Kv 1 (rat Kv 1.5), rat or human Kv 3 (rat Kv 1.3; human Kv 1.3), Kv 4 (rat Kv 3.1 ), rat ISK, Kv 2 (rat Kv 1.6) or Drosophila Shaker-H4. The names of the clones are listed as originally published, with the appropriate parenthetical designation according to the unified gene nomenclature proposed by Chandy. Shaker-H4 is a splice variant from the original Drosophila Shaker K^+ channel gene. Kv 1.3 is the ChTX-sensitive delayed rectifier current found in rat and human T lymphocytes (data from rat and human clones were indistinguishable and were combined) and it is a member of the Shaker family. Kv 1.5 is a channel cloned from rat (Swanson et al., Neuron, 4, 929, 1990) and is another member of the Shaker family. The Kv 1.5 transcript has been detected in pancreatic β cells as described in Philipson, et al., Proc. Natl. Acad. Sci. U.S.A. 88, 53, 1991. […] The ISK transcript has been detected in lymphocytes (Attali et al., J. Biol. Chem,. 267, 8650, 1992), but no evidence of the IKs current has been found in those cells.
Methods for oocyte isolation and micro-injection were previously described in Goldin, Meth. […] Currents expressed in oocytes were measured using a DAGAN model CA-1 two-electrode voltage clamp. […]

T1 sequence (P22001 whole entry): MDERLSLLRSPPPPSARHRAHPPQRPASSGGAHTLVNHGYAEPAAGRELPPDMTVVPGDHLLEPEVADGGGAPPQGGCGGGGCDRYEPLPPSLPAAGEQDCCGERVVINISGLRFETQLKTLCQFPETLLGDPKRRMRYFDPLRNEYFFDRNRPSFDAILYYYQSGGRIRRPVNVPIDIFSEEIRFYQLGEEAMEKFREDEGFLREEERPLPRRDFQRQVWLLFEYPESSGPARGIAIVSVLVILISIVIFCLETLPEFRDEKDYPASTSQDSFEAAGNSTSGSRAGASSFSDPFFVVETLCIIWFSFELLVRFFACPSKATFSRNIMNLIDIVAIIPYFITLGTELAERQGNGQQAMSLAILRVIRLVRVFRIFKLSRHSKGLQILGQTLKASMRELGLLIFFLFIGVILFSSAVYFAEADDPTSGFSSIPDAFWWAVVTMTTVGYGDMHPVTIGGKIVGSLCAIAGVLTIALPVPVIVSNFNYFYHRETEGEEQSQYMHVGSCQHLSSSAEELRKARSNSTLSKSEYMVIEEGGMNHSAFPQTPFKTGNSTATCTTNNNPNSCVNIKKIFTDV

For `CC[C@H](C)[C@H](NC(=O)[C@@H](N)[C@@H](C)O)C(=O)N[C@H](C(=O)N[C@@H](CC(N)=O)C(=O)N[C@H](C(=O)N[C@@H](CCCCN)C(=O)N[C@H]1CSSC[C@@H]2NC(=O)[C@H](CCCCN)NC(=O)[C@H](C)NC(=O)CNC(=O)[C@H](C)NC(=O)[C@H](CO)NC(=O)[C@H](CCC(N)=O)NC(=O)CNC(=O)[C@H](Cc3ccccc3)NC(=O)[C@H](CCC(N)=O)NC(=O)[C@H](C)NC(=O)[C@H](CCCCN)NC(=O)[C@@H]3CSSC[C@@H](C(=O)N[C@@H](Cc4ccc(O)cc4)C(=O)N4CCC[C@H]4C(=O)N[C@@H](Cc4c[nH]cn4)C(=O)O)NC(=O)[C@H](CCCCN)NC(=O)[C@H](CSSC[C@H](NC(=O)[C@H](CCC(N)=O)NC(=O)[C@H](CCCCN)NC(=O)[C@@H]4CCCN4C(=O)[C@H](CO)NC(=O)[C@H]([C@@H](C)O)NC1=O)C(=O)N[C@@H](CC(C)C)C(=O)N1CCC[C@H]1C(=O)N1CCC[C@H]1C(=O)N3)NC(=O)[C@H](CCCCN)NC(=O)CNC(=O)[C@H](CC(N)=O)NC(=O)[C@H](CCSC)NC2=O)C(C)C)[C@@H](C)CC` [MgTX, Margatoxin] (HELM PEPTIDE1{T.I.I.N.V.K.C.T.S.P.K.Q.C.L.P.P.C.K.A.Q.F.G.Q.S.A.G.A.K.C.M.N.G.K.C.K.C.Y.P.H}$PEPTIDE1,PEPTIDE1,7:R3-29:R3|PEPTIDE1,PEPTIDE1,13:R3-34:R3|PEPTIDE1,PEPTIDE1,17:R3-36:R3$$$V2.0; N-terminus and C-terminus assumed; bridges inferred), the “t1/2 of recovery from block following removal from the bath” value [1] was greater than 20 min, the “inhibition of the voltage activated K+ channel from human lymphocytes” value ([1]; at 1 nM) was “Complete inhibition” and the “potency relative to ChTX on the same preparation” value ([1]; lymphocyte Kv 1.3 current) was “five to ten-fold more potent”. It also gave an IC50 ([1]; read-out: apparent IC50 for inhibition of the lymphocyte Kv 1.3 current) of 0.02 to 0.1 nM and an IC50 [2] of roughly 0.03 nM.
